Assay results: article PMC9289467, “A Novel Multifunctional 5,6-Dimethoxy-Indanone-Chalcone-Carbamate Hybrids Alleviates Cognitive Decline in Alzheimer’s Disease by Dual Inhibition of Acetylcholinesterase and Inflammation” (Frontiers in Aging Neuroscience, 2022)

Legend:
[1] = system: spatial recognition memory; assay: Y-maze; assay type: in vivo; conditions: after training for 3 h, relative to APP/PS1 mice
Experimental: APP/PS1 mice of ages 6 months were randomly divided into vehicle (APP/PS1, n = 10) and treatment groups (AP5, n = 10), which were intragastrically administered with AP5 (40 mg/kg) once daily for consecutive 5 months. AP5 was dissolved in distilled water containing 1% sodium carboxymethyl cellulose.
To investigate whether AP5 treatment plays a key role in cognition improvement of APP/PS1 mice models, the five different behavioral tests were sequentially carried out in the following order: open field, novel object recognition task, spatial object-location task, Y-maze, and Morris water maze (MWM). AP5 was also administered daily during the test periods. […]
For the spatial object location task (an object moved to a new location), mice first explored the two objects placed in two corners of the open field for 5 min in training period. After 1 h or 24 h, the mice received a 5 min retention trial with a new spatial configuration with an object moved from one corner to the opposite corner of the open field.The discrimination index was calculated and defined as: (time spent exploring the displaced object-time spent exploring nondisplaced objects) / total exploration time for the two objects during the 5 min retention trial. […]
guided to platform and allowed to stay on it for 30 s. The time (escape latency) for each mouse to find the way and reach the target platform was analyzed. […]

[2] = Single-dose pharmacokinetics in mice (plasma and brain, UPLC-TSQ/MS); assay type: in vivo, C57BL/6J mice; conditions: mouse
Experimental: To determine the pharmacokinetics of AP5 in mice, the mice were administered a single dose of AP5 by i.v. and oral gavage dose routes. The plasma and brain homogenate were detected by UPLC-TSQ/MS(Thermo Fisher Scientific, Waltham, MA, United States). The plasma drug concentrations were analyzed for PK data by DAS (Drug and Statistics) Version 3.0 (BioGuider Corporation, Shanghai, China). Bioavailability (F%) after oral administration was calculated as AUCINF p.o./AUCINF i.v./4 × 100. AUCINF p.o. and AUCINF i.v. represent the area under the plasma concentration–time curve extrapolated to infinity after single-dose per os and intravenous injection, respectively. The extent of brain penetration was measured by the brain-to-plasma distribution ratio (B/P). The B/P value was calculated as: AUCINFbrain/AUCINF plasma × 100. AUCINF brain represents the area under the brain concentration–time curve extrapolated to infinity after a single-dose per os.
We next determine the pharmacokinetic profile of AP5 in male C57BL/6J mice given a single intravenous (i.v.) dose of 10 mg/kg or single per os (p.o.) dose of 40 mg/kg, respectively. […] Importantly, we determined AP5 in the brain homogenate with the highest concentration of 95.3 ng/mL at 2 h (Figures 1D,E). […]
Supplementary materials and methods
Prepations ofspecimen for pharmacokinetics analysis
24 h afterdosing. Brains were collected at0, 0.25, 0.5,2, 4,8 and 24 h after administration.Plasma extractions were performed by adding 90 μL methanol and 2 μL internalstandard letrozole (500 ng/mL) to a30 µL plasma sample. Brain samples were homogenized in 1 mL PBS per gram brain tissueby handheld homogenizer.
Then 90 μL methanol and 2 μL letrozolewere added to 30 µl brainhomogenates. The samples were vortexed for 3 min and centrifuged 15 min at25,000 g.The plasma and brainhomogenate were analyzed by UPLC-TSQ/MS (Thermo Fisher Scientific, Waltham, MA, USA). Samples were compared to a calibrationcurve prepared ina similarmanner by spiking blank controlplasma or homogenate with standards prepared inmethanol and then extractedas above. […]

[3] = male, C57BL/6J, brain homogenate, po, brain, p.o. 40 mg/kg
[4] = male, C57BL/6J, iv, plasma, i.v. 10 mg/kg
[5] = male, C57BL/6J, plasma, iv, 10 mg/kg, i.v. 10 mg/kg
[6] = male, C57BL/6J, plasma, po, 40 mg/kg, p.o. 40 mg/kg
[7] = male, C57BL/6J, po, plasma, p.o. 40 mg/kg

CCN(C)C(=O)Oc1cccc(/C=C2\Cc3cc(OC)c(OC)cc3C2=O)c1 [AP5, (E)-3-((5,6-dimethoxy-1-oxo-1,3-dihydro-2H-inden-2-ylidene)-methyl)phenylethyl(methyl)carbamate]
preference index [1]: marked elevation | B/P (brain-to-plasma distribution ratio, brain penetration) ([2]; AUCINF brain/AUCINF plasma × 100, p.o. 40 mg/kg, 40 mg/kg): 10.23% | Cl ([2]; brain, p.o. 40 mg/kg): 53.77 L/h/kg | Vss ([2]; brain, p.o. 40 mg/kg): 412.6 L/kg | AUC(0-inf) [2, 3]: 744 ng·h/mL | AUC(0-t) [2, 3]: 706 ng·h/mL | half-life [2, 3]: 319 min | AUC(0-inf) [2, 4]: 2700 ng·h/mL | AUC(0-t) [2, 4]: 2600 ng·h/mL | clearance [2, 4]: 125 mL/min/kg | half-life [2, 4]: 200 min | Vd ([2]; male, C57BL/6J, iv, plasma, i.v. 10 mg/kg, read-out: Vss): 36.3 L/kg | Tmax ([2]; male, C57BL/6J, brain homogenate, po, 40 mg/kg, brain, p.o. 40 mg/kg): 1.5 h | Cmax ([2]; male, C57BL/6J, brain homogenate, po, 40 mg/kg, p.o. 40 mg/kg): 95.4 ng/mL | Kp ([2]; male, C57BL/6J, brain/plasma, po, 40 mg/kg, AUCINF brain/AUCINF plasma × 100, p.o. 40 mg/kg, read-out: B/P (brain-to-plasma distribution ratio, brain penetration)): > 0.1 | Cmax [2, 5]: 5440 ng/mL | Tmax [2, 5]: 0.083 h | Cmax [2, 6]: 2090 ng/mL | Tmax [2, 6]: 2 h | bioavailability ([2]; male, C57BL/6J, plasma, oral, AUCINF p.o./AUCINF i.v./4 × 100, p.o. 40 mg/kg, i.v. 10 mg/kg, read-out: F (oral bioavailability)): 67.2% | AUC(0-inf) [2, 7]: 7260 ng·h/mL | AUC(0-t) [2, 7]: 6990 ng·h/mL | half-life [2, 7]: 284 min | Cl ([2]; plasma, p.o. 40 mg/kg): 2.756 L/h/kg | Vss ([2]; plasma, p.o. 40 mg/kg): 18.79 L/kg
